From article PMC6268315, “Investigating the Spectrum of Biological Activity of Substituted Quinoline-2-Carboxamides and Their Isosteres ^†” (Molecules, 2012)
pIC50: −log10 of the molar value. Values joined by “and” are separate entries in the source; they are usually repeats but may differ in a detail not shown here. Equal entries are not always repeated.

Key:
[1] = tested on: photosynthetic electron transport (PET) in spinach chloroplasts; assay: Inhibition of photosynthetic electron transport (PET) in spinach chloroplasts; type: biochemical, Spinacia oleracea L.; settings: photoreduction of DCPIP, pH 7.2
Method: Chloroplasts were prepared from spinach (Spinacia oleracea L.) according to Masarovicova and Kralova. The inhibition of photosynthetic electron transport (PET) in spinach chloroplasts was determined spectrophotometrically (Genesys 6, Thermo Scientific, USA), using an artificial electron acceptor 2,6-dichlorophenol-indophenol (DCIPP) according to Kralova et al., and the rate of photosynthetic electron transport was monitored as a photoreduction of DCPIP. The measurements were carried out in phosphate buffer (0.02 mol/L, pH 7.2) containing sucrose (0.4 mol/L), MgCl2 (0.005 mol/L) and NaCl (0.015 mol/L). The chlorophyll content was 30 mg/L in these experiments and the samples were irradiated (~100 W/m^2 with 10 cm distance) with a halogen lamp (250 W) using a 4 cm water filter to prevent warming of the samples (suspension temperature 22 °C). The studied compounds were dissolved in DMSO due to their limited water solubility. […] The inhibitory efficiency of the studied compounds was expressed by IC50 values, i.e., by molar concentration of the compounds causing 50% decrease in the oxygen evolution rate relative to the untreated control.

| Compound | melting point | pIC50 [1] |
| --- | --- | --- |
| O=C(NC1CCCC1)c1ccc2ccccc2c1 [Compound 24, N-Cyclopentyl-2-naphthamide] | 190 to 191 °C |  |
| O=C(Nc1cccc(C(F)(F)F)c1)c1ccc2ccccc2c1 [Compound 37b, N-(3-Trifluoromethylphenyl)-2-naphthamide] | 150 °C | 3.51 |
| O=C(Nc1cccc(Cl)c1)c1ccc2ccccc2c1 [Compound 35b, N-(3-Chlorophenyl)-2-naphthamide] | 180 °C | 4.09 |
| O=C(Nc1ccc(O)cc1)c1ccc2ccccc2n1 [Compound 12c, N-(4-Hydroxyphenyl)quinoline-2-carboxamide] | 230 to 231 °C |  |
| O=C(Nc1ccccc1Br)c1ccc2ccccc2c1 [Compound 36a, N-(2-Bromophenyl)-2-naphthamide] | 123 °C |  |
| O=C(Nc1ccc(F)cc1)c1ccc2ccccc2n1 [Compound 15c, N-(4-Fluorophenyl)quinoline-2-carboxamide] | 115 to 116 °C | 4.12 |
| O=C(Nc1ccc(Br)cc1)c1ccc2ccccc2n1 [Compound 17c, N-(4-Bromophenyl)quinoline-2-carboxamide] | 157 to 158 °C | 3.51 |
| O=C(Nc1cccc([N+](=O)[O-])c1)c1ccc2ccccc2n1 [Compound 19b, N-(3-Nitrophenyl)quinoline-2-carboxamide] | 189 to 190 °C |  |
| Cc1ccc(NC(=O)c2ccc3ccccc3n2)cc1 [Compound 14c, N-(4-Methylphenyl)quinoline-2-carboxamide] | 107 to 108 °C |  |
| O=C(Nc1ccc([N+](=O)[O-])cc1)c1ccc2ccccc2c1 [Compound 38c, N-(4-Nitrophenyl)-2-naphthamide] | 200 °C | 3.59 |
| O=C(NC1CCCCCCC1)c1ccc2ccccc2c1 [Compound 27, N-Cyclooctyl-2-naphthamide] | 145 to 146 °C | 3.16 |
| O=C(c1ccc2ccccc2n1)N1CCCCC1 [Compound 4, 2-(Piperidin-1-ylcarbonyl)quinoline] | 83 to 84 °C |  |
| O=C(NCc1ccccc1)c1ccc2ccccc2n1 [Compound 10, N-Benzylquinoline-2-carboxamide] | 123 to 124 °C | 4.23 |
| Cc1cccc(NC(=O)c2ccc3ccccc3c2)c1 [Compound 33b, N-(3-Methylphenyl)-2-naphthamide] | 160 °C |  |
| O=C(Nc1ccc(Cl)cc1)c1ccc2ccccc2c1 [Compound 35c, N-(4-Chlorophenyl)-2-naphthamide] | 218 °C |  |
| O=C(Nc1cccc(F)c1)c1ccc2ccccc2n1 [Compound 15b, N-(3-Fluorophenyl)quinoline-2-carboxamide] | 126 to 127 °C | 4.06 |
| O=C(Nc1cccc([N+](=O)[O-])c1)c1ccc2ccccc2c1 [Compound 38b, N-(3-Nitrophenyl)-2-naphthamide] | 177 °C | 3.20 |
| O=C(Nc1cccc(C(F)(F)F)c1)c1ccc2ccccc2n1 [Compound 18b, N-(3-Trifluoromethylphenyl)quinoline-2-carboxamide] | 121 to 122 °C | 3.48 |
| Cc1ccccc1NC(=O)c1ccc2ccccc2c1 [Compound 33a, N-(2-Methylphenyl)-2-naphthamide] | 146 °C |  |
| CN(C)C(=O)Nc1ccc(Cl)c(Cl)c1 [DCMU, 3-(3,4-dichlorophenyl)-1,1-dimethylurea, reference compound] |  | ~5.72 and 5.72 |
| O=C(Nc1ccc(F)cc1)c1ccc2ccccc2c1 [Compound 34c, N-(4-Fluorophenyl)-2-naphthamide] | 191 °C |  |
| COc1ccccc1NC(=O)c1ccc2ccccc2n1 [Compound 13a, N-(2-Methoxyphenyl)quinoline-2-carboxamide] | 111 to 112 °C |  |
| O=C(NCc1ccccc1)c1ccc2ccccc2c1 [Compound 29, N-Benzyl-2-naphthamide] | 138 to 139 °C | 5.12 |
| O=C(Nc1ccccc1F)c1ccc2ccccc2n1 [Compound 15a, N-(2-Fluorophenyl)quinoline-2-carboxamide] | 116 to 117 °C | 4.01 |
| O=C(Nc1ccc([N+](=O)[O-])cc1)c1ccc2ccccc2n1 [Compound 19c, N-(4-Nitrophenyl)quinoline-2-carboxamide] | 227 to 228 °C |  |
| Cc1ccc(NC(=O)c2ccc3ccccc3c2)cc1 [Compound 33c, N-(4-Methylphenyl)-2-naphthamide] | 195 °C |  |
| O=C(NC1CCCCCC1)c1ccc2ccccc2c1 [Compound 26, N-Cycloheptyl-2-naphthamide] | 157 to 158 °C | 3.67 |

| Compound | melting point | pIC50 [1] |
| --- | --- | --- |
| COc1ccc(NC(=O)c2ccc3ccccc3n2)cc1 [Compound 13c, N-(4-Methoxyphenyl)quinoline-2-carboxamide] | 130 to 131 °C |  |
| O=C(Nc1ccccc1)c1ccc2ccccc2c1 [Compound 28, N-Phenyl-2-naphthamide] |  | 4.68 |
| O=C(c1ccc2ccccc2c1)N1CCCCC1 [Compound 23, 1-(2-Naphthoyl)piperidine] | 97 to 98 °C |  |
| O=C(Nc1cccc(O)c1)c1ccc2ccccc2c1 [Compound 31b, N-(3-Hydroxyphenyl)-2-naphthamide] | 194 °C |  |
| O=C(Nc1cccc(O)c1)c1ccc2ccccc2n1 [Compound 12b, N-(3-Hydroxyphenyl)quinoline-2-carboxamide] | 154 to 155 °C |  |
| O=C(NC1CCCCC1)c1ccc2ccccc2c1 [Compound 25, N-Cyclohexyl-2-naphthamide] | 184 to 185 °C |  |
| COc1cccc(NC(=O)c2ccc3ccccc3n2)c1 [Compound 13b, N-(3-Methoxyphenyl)quinoline-2-carboxamide] | 117 to 118 °C |  |
| O=C(Nc1ccccc1[N+](=O)[O-])c1ccc2ccccc2c1 [Compound 38a, N-(2-Nitrophenyl)-2-naphthamide] | 136 °C |  |
| O=C(Nc1cccc(Cl)c1)c1ccc2ccccc2n1 [Compound 16b, N-(3-Chlorophenyl)quinoline-2-carboxamide] | 127 to 128 °C | 4.04 |
| COc1cccc(NC(=O)c2ccc3ccccc3c2)c1 [Compound 32b, N-(3-Methoxyphenyl)-2-naphthamide] | 142 °C | 3.51 |
| O=C(Nc1ccc(C(F)(F)F)cc1)c1ccc2ccccc2c1 [Compound 37c, N-(4-Trifluoromethylphenyl)-2-naphthamide] | 224 °C |  |
| O=C(Nc1ccc(Br)cc1)c1ccc2ccccc2c1 [Compound 36c, N-(4-Bromophenyl)-2-naphthamide] | 231 °C |  |
| O=C(Nc1ccccc1C(F)(F)F)c1ccc2ccccc2n1 [Compound 18a, N-(2-Trifluoromethylphenyl)quinoline-2-carboxamide] | 120 to 121 °C | 3.96 |
| O=C(Nc1ccccc1F)c1ccc2ccccc2c1 [Compound 34a, N-(2-Fluorophenyl)-2-naphthamide] | 122 °C |  |
| O=C(NCCc1ccccc1)c1ccc2ccccc2c1 [Compound 30, N-(2-Phenylethyl)-2-naphthamide] | 133 to 134 °C |  |
| O=C(Nc1ccccc1Br)c1ccc2ccccc2n1 [Compound 17a, N-(2-Bromophenyl)quinoline-2-carboxamide] | 134 to 135 °C | 4.04 |
| O=C(Nc1ccccc1[N+](=O)[O-])c1ccc2ccccc2n1 [Compound 19a, N-(2-Nitrophenyl)quinoline-2-carboxamide] | 181 to 182 °C |  |
| O=C(Nc1ccc(C(F)(F)F)cc1)c1ccc2ccccc2n1 [Compound 18c, N-(4-Trifluoromethylphenyl)quinoline-2-carboxamide] | 147 to 148 °C |  |
| O=C(Nc1cccc(Br)c1)c1ccc2ccccc2c1 [Compound 36b, N-(3-Bromophenyl)-2-naphthamide] | 193 °C | 3.99 |
| O=C(Nc1ccc(Cl)cc1)c1ccc2ccccc2n1 [Compound 16c, N-(4-Chlorophenyl)quinoline-2-carboxamide] | 134 to 135 °C | 3.83 |
| O=C(Nc1cccc(Br)c1)c1ccc2ccccc2n1 [Compound 17b, N-(3-Bromophenyl)quinoline-2-carboxamide] | 139 to 140 °C | 3.39 |
| O=C(Nc1ccccc1Cl)c1ccc2ccccc2n1 [Compound 16a, N-(2-Chlorophenyl)quinoline-2-carboxamide] | 130 to 131 °C | 4.25 |
| CCCCCCCCCCCCNC(=O)c1ccc2ccccc2c1 [Compound 21, N-Dodecyl-2-naphthamide] | 102 to 103 °C | 3.07 |
| O=C(Nc1ccccc1O)c1ccc2ccccc2n1 [Compound 12a, N-(2-Hydroxyphenyl)quinoline-2-carboxamide] | 219 to 220 °C | 4.79 |
| O=C(Nc1cccc(F)c1)c1ccc2ccccc2c1 [Compound 34b, N-(3-Fluorophenyl)-2-naphthamide] | 167 °C |  |
| Cc1ccccc1NC(=O)c1ccc2ccccc2n1 [Compound 14a, N-(2-Methylphenyl)quinoline-2-carboxamide] | 100 to 101 °C | 3.84 |
| O=C(Nc1ccccc1Cl)c1ccc2ccccc2c1 [Compound 35a, N-(2-Chlorophenyl)-2-naphthamide] | 116 °C |  |
